“Also recorded” adds a separate entry of the source.
Experiments:
HDAC5 = HDAC5 (Homo sapiens, UniProt Q9UQL6); assay: In vitro HDAC5; assay type: biochemical
[1] = system: histone H3K9 acetylation in mouse forebrain primary neuronal cultures; assay: Neuronal histone acetylation assay, H3K9ac immunofluorescence; assay type: cell-based; settings: 1 and 10 μM, 24 hrs, relative to SAHA
[2] = system: histone H4K12 acetylation in mouse forebrain primary neuronal cultures; assay: Neuronal histone acetylation assay, H4K12ac immunofluorescence; assay type: cell-based; settings: 1 and 10 μM, 24 hrs, relative to SAHA
[3] = Mouse plasma pharmacokinetics and brain-to-plasma ratio; assay type: in vivo
[4] = system: recombinant human HDAC1-3; assay: In vitro HDAC1-3 inhibition, potency comparison across the three isoforms; assay type: biochemical
[5] = mouse, intraperitoneal 25 mg/kg; cited from earlier work

HDAC5, sequence (Q9UQL6 whole entry, species assumed): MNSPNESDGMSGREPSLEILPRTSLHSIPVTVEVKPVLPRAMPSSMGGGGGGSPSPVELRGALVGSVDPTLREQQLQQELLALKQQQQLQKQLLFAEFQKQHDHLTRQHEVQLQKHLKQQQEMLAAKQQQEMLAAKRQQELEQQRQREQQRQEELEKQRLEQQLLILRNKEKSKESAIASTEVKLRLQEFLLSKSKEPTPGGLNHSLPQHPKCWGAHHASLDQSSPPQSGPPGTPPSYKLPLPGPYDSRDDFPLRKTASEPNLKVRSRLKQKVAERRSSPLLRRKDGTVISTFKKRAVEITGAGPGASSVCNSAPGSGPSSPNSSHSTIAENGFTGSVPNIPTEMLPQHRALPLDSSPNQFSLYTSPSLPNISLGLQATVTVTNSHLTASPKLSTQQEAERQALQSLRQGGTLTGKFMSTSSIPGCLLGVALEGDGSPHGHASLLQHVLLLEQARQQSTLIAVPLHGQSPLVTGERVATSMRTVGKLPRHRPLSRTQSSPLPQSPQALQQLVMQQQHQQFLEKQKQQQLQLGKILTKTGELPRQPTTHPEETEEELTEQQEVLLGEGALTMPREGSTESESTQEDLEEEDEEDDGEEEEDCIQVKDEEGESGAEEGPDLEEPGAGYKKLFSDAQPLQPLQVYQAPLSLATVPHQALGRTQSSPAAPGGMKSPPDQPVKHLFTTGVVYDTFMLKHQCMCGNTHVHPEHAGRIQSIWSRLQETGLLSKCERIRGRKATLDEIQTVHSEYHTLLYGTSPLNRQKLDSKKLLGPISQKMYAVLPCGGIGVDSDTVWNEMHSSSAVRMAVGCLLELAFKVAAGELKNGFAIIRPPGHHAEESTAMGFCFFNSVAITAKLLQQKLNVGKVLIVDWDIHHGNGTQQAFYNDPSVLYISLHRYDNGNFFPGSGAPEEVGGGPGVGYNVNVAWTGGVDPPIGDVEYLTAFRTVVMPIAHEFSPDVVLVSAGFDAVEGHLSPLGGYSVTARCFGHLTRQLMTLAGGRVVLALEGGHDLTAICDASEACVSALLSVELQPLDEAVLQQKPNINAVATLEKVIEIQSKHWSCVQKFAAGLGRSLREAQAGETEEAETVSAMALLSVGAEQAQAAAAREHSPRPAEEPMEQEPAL

Compound	induction of histone H3K9 acetylation (H3K9ac) [1]	induction of histone H4K12 acetylation (H4K12ac) [2]	other results
O=C(CCCCCC(=O)N/N=C/c1ccc(-c2cccnc2)cc1)NO [Compound 9f, neurinostat]	most potent	most potent	activity toward HDAC5 (HDAC5): no activity; plasma maximum concentration ([3]; intraperitoneal 25 mg/kg, peripheral blood): 1.9 µM; brain-to-plasma ratios relative to those measured for crebinostat (9b) ([3]; time points 0.5, 1 and 2 hours): about twice
O=C(CCCCCC(=O)N/N=C/c1ccc(-c2ccccc2)cc1)NO [Compound 9b, crebinostat]	greater increases; also recorded: more effective	greater increases; also recorded: more effective	fold reduction in IC50 versus SAHA ([4]; HDAC1, 2 or 3): > 5 fold; activity toward HDAC5 (HDAC5): no activity; brain Cmax [5]: 60 nM
O=C(CCCCCCC(=O)N/N=C/c1ccc(-c2ccccc2)cc1)NO [Compound 9c]	greater increases	greater increases	fold improved potency for inhibiting HDAC1-3 versus crebinostat (9b) ([4]; HDAC1-3, biochemical reaction): ~ 2 fold
COc1cc(O)cc(OC)c1/C=N/NC(=O)CCCCCC(=O)NO [Compound 9k]	least potent	least potent	–
O=C(CCCCC(=O)N/N=C/c1ccc(-c2ccccc2)cc1)NO [Compound 9a]	–	–	fold increase in IC50's over those of crebinostat (9b) ([4]; HDAC1, 2 or 3): approximately 20 fold
NNC(=O)CCCCCCC(=O)NO [Compound 7]	No induction	No induction	–
NNC(=O)CCCCC(=O)NO [Compound 3a]	No induction	No induction	–
NNC(=O)CCCCCC(=O)NO [Compound 3b]	No induction	No induction	–
COc1ccc(Br)c(/C=N/NC(=O)CCCCCC(=O)NO)c1 [Compound 9j]	more effective	more effective	–

— paper PMC4753070 (Bioorganic & medicinal chemistry letters, 2016)
